In paper PMC7684622, “The application of L‐glutaminase for the synthesis of the immunomodulatory γ‐D‐glutamyl‐L‐tryptophan and the kokumi‐imparting γ‐D‐glutamyl peptides” (Food Science & Nutrition, 2020):

These compounds were tested on T1, L-glutaminase of Bacillus amyloliquefaciens (assay: hydrolysis, HPLC / UPLC-MS). Conditions: hydrolysis reaction; apparent.
T1 construct: gene ggt; commercial enzyme preparation (Amano Enzyme China); called L-Gln amidohydrolase EC 3.5.1.2 with gamma-glutamyl transpeptidase activity
Assay type: biochemical
Source text: hydrolysis, HPLC / UPLC-MS on L-glutaminase of Bacillus amyloliquefaciens

Point of comparison: `N[C@@H](CCC(=O)N[C@@H](Cc1c[nH]c2ccccc12)C(=O)O)C(=O)O` [γ-L-Glu-L-Trp], Km 15.7 ± 1.82 mM. Against it:
- CSCC[C@H](NC(=O)CC[C@@H](N)C(=O)O)C(=O)O [γ-D-Glu-L-Met] — 4-fold higher, 62.2 ± 4.61 mM
- N[C@H](CCC(=O)N[C@@H](Cc1ccccc1)C(=O)O)C(=O)O [γ-D-Glu-L-Phe] — 3.4-fold higher, 52.8 ± 3.02 mM
- N[C@H](CCC(=O)N[C@@H](Cc1c[nH]c2ccccc12)C(=O)O)C(=O)O [γ-D-Glu-L-Trp] — 2.3-fold higher, 36.7 ± 2.86 mM
- CC(C)[C@H](NC(=O)CC[C@@H](N)C(=O)O)C(=O)O [γ-D-Glu-L-Val] — 4.4-fold higher, 68.8 ± 5.25 mM
- CC(C)[C@H](NC(=O)CC[C@@H](NC(=O)CC[C@@H](N)C(=O)O)C(=O)O)C(=O)O [γ-[D-Glu]2-L-Val] — 5.8-fold higher, 90.4 ± 6.25 mM

These compounds were tested on T1, L-glutaminase of Bacillus amyloliquefaciens (assay: transpeptidation, gamma-L-Glu-L-Trp formed, by HPLC / UPLC-MS). Conditions: gamma-glutamyl donor; fixed 25 mM L-Trp; apparent; read-out: Synthesis.
Assay type: biochemical
Source text: transpeptidation, gamma-L-Glu-L-Trp formed, by HPLC / UPLC-MS on L-glutaminase of Bacillus amyloliquefaciens

In the case of `NC(=O)CC[C@H](N)C(=O)O` [L-Gln], the Km is reported as 0.98 ± 0.08 mM.

The compounds below were run on T1, L-glutaminase of Bacillus amyloliquefaciens (assay: transpeptidation, gamma-D-Glu-L-Trp formed, by HPLC / UPLC-MS). Conditions: gamma-glutamyl donor; fixed 25 mM L-Trp; apparent; read-out: Synthesis.
Assay type: biochemical
Source text: transpeptidation, gamma-D-Glu-L-Trp formed, by HPLC / UPLC-MS on L-glutaminase of Bacillus amyloliquefaciens

Compound `NC(=O)CC[C@@H](N)C(=O)O` [D-Gln] has a Km of 5.53 ± 0.98 mM.

What follows are compounds tested on T1, L-glutaminase of Bacillus amyloliquefaciens (assay: transpeptidation, product by HPLC / UPLC-MS). Conditions: acceptor; fixed 25 mM D-Gln; apparent; read-out: Synthesis.
Assay type: biochemical
Source text: transpeptidation, product by HPLC / UPLC-MS on L-glutaminase of Bacillus amyloliquefaciens

Point of comparison: `N[C@@H](Cc1c[nH]c2ccccc12)C(=O)O` [L-Trp], Km 32.5 ± 3.86 mM. Against it:
- CSCC[C@H](N)C(=O)O [L-Met] — 2.7-fold higher, 88.8 ± 6.12 mM
- N[C@@H](Cc1ccccc1)C(=O)O [L-Phe] — within 1.5-fold, 46.3 ± 2.32 mM
- CC(C)[C@H](N)C(=O)O [L-Val] — 2.4-fold higher, 76.6 ± 3.25 mM
